In patent publication US9005580B2, “Treatment of renal cell carcinoma” (priority 2010, dated 2015):

Key:
[1] = compared to BCNU; cited from earlier work
[2] = test system: xenografts in nude mice; settings: in some cases; cited from earlier work
[3] = test system: human renal cell carcinomas (SKRC-7, 786-0); type: cell-based
[4] = test system: Sprague-Dawley rats; settings: corresponding amounts of unconjugated Orellanine, within four days; cited from earlier work
[5] = test system: human renal cancer cells; settings: cells derived from a primary tumor or from metastatic tumor tissue; cited from earlier work

## O=NN(CCCl)C(=O)NCCO [HECNU, 1-(2-chloroethyl)-1-nitroso-3-(2-hydroxyethyl)urea]
[1]
  water solubility: improved water solubility

## Cc1cc(N(CCOS(C)(=O)=O)CCOS(C)(=O)=O)ccc1C=O [NSC-281612]
[2]
  effect on tumor mass: apparently complete eradication of the tumor mass

## [O-][n+]1ccc(O)c(O)c1-c1c(O)c(O)cc[n+]1[O-] [Orellanine, 3,3′,4,4′-tetrahydroxy-2,2′-bipyridine-N,N′-dioxide]
[3]
  correlation between exposure concentration and fraction of cells that die: clear correlation
  delay between administration and onset of cell death: 48 h
[4]
  loss of GFR: almost total loss of GFR
[5]
  killing of renal cancer cells: kills them with great efficiency
